Experimental data reported in patent publication US20230250106A1, “COMPOUNDS AND COMPOSITIONS FOR TREATING CONDITIONS ASSOCIATED WITH STING ACTIVITY” (IFM Due, Inc., priority 2020, published 2023).

tested on: STING pathway; experiment: STING reporter assay: luciferase reporter activity in THP1-Dual KO-IFNAR2 cells activated with 2'3'cGAMP; type: cell-based; set-up: hSTING EC50: scale not given here; details: 2'3'cGAMP 15 μM, 24 h
Outline: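 Luciferase secreted into the supernatant (QUANTI-Luc Plus read-out) was measured after 24 h at 37 °C. This was in THP1-Dual KO-IFNAR2 cells given test compounds (0.0017-100 μM final) plus Lipofectamine-transfected 2′3′cGAMP at 15 μM final; EC50 was then derived.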

hSTING EC50	SMILES
+ +	COc1ncc(C(=O)Nc2c[nH]c3cc(F)c(F)cc23)cc1C(F)(F)F [Compound 264, N-(5,6-difluoro-1H-indol-3-yl)-6-methoxy-5-(trifluoromethyl)pyridine-3-carboxamide]

same assay, conditions: Homo sapiens, 2'3'cGAMP 15 μM, 24 h, read-out: hSTING EC50

SMILES	EC50 [nM]
O=C(Nc1c[nH]c2cc(F)c(F)cc12)c1ccnc(N2CC(F)(F)C2)c1Cl [Compound 252, 3-chloro-N-(5,6-difluoro-1H-indol-3-yl)-2-(3,3-difluoroazetidin-1-yl)isonicotinamide]	1000 to 5000
Cc1c(C(=O)Nc2c[nH]c3cc(F)c(F)cc23)ccnc1N1CC(F)(F)C1 [Compound 253, N-(5,6-difluoro-1H-indol-3-yl)-2-(3,3-difluoroazetidin-1-yl)-3-methylisonicotinamide]	1000 to 5000
O=C(Nc1c[nH]c2cc(F)c(F)cc12)c1cnc(CN2CCC(F)(F)CC2)c(Cl)c1 [Compound 254, 5-chloro-N-(5,6-difluoro-1H-indol-3-yl)-6-((4,4-difluoropiperidin-1-yl)methyl)nicotinamide]	200 to 1000
O=C(Nc1c[nH]c2cc(F)c(F)cc12)c1cnc(CN2CC(F)(F)C2)c(Cl)c1 [Compound 255, 5-chloro-N-(5,6-difluoro-1H-indol-3-yl)-6-((3,3-difluoroazetidin-1-yl)methyl)nicotinamide]	1000 to 5000
Cc1ncc(C(=O)Nc2c[nH]c3cc(F)c(F)cc23)cc1N1CCC(F)(F)CC1 [Compound 256, N-(5,6-difluoro-1H-indol-3-yl)-5-(4,4-difluoropiperidin-1-yl)-6-methylnicotinamide]	1000 to 5000
O=C(Nc1c[nH]c2cc(F)c(F)cc12)c1ccc(CN2CC(F)C2)c(F)c1 [Compound 260, N-(5,6-difluoro-1H-indol-3-yl)-3-fluoro-4-((3-fluoroazetidin-1-yl)methyl)benzamide]	200 to 1000
O=C(Nc1c[nH]c2cc(F)c(F)cc12)c1ccnc(Oc2ccccc2)c1 [Compound 263, N-(5,6-difluoro-1H-indol-3-yl)-2-phenoxypyridine-4-carboxamide]	200 to 1000
O=C(Nc1c[nH]c2cc(F)c(F)cc12)c1ccc(-c2noc(C3CC3)n2)cc1 [Compound 266, 4-(5-cyclopropyl-1,2,4-oxadiazol-3-yl)-N-(5,6-difluoro-1H-indol-3-yl)benzamide]	200 to 1000
CC(C)c1nc(-c2ccc(C(=O)Nc3c[nH]c4cc(F)c(F)cc34)cc2)no1 [Compound 267, N-(5,6-difluoro-1H-indol-3-yl)-4-(5-isopropyl-1,2,4-oxadiazol-3-yl)benzamide]	200 to 1000
O=C(Nc1c[nH]c2cc(F)c(F)cc12)c1ccc(OC(F)(F)C(F)F)cc1 [Compound 268, N-(5,6-difluoro-1H-indol-3-yl)-4-(1,1,2,2-tetrafluoroethoxy)benzamide]	200 to 1000
O=C(Nc1c[nH]c2cc(F)c(F)cc12)c1ccc(OC2COC2)cc1 [Compound 269, N-(5,6-difluoro-1H-indol-3-yl)-4-(oxetan-3-yloxy)benzamide]	1000 to 5000
O=C(Nc1c[nH]c2cc(F)c(F)cc12)c1ccc(OC(F)F)cn1 [Compound 270, N-(5,6-difluoro-1H-indol-3-yl)-5-(difluoromethoxy)pyridine-2-carboxamide]	5000 to 100000
N#Cc1cc(C(=O)Nc2c[nH]c3ccc(Cl)cc23)cnc1N1CC(F)(F)C1 [Compound 271, N-(5-chloro-1H-indol-3-yl)-5-cyano-6-(3,3-difluoroazetidin-1-yl)nicotinamide]	200 to 1000
Cc1cc(N2CC(F)(F)C2)ncc1C(=O)Nc1c[nH]c2ccc(Cl)cc12 [Compound 272, N-(5-chloro-1H-indol-3-yl)-6-(3,3-difluoroazetidin-1-yl)-4-methylnicotinamide]	200 to 1000
O=C(Nc1c[nH]c2cc(F)c(F)cc12)c1ccc(CN2CC(F)(F)C2)nc1 [Compound 273, N-(5,6-difluoro-1H-indol-3-yl)-6-((3,3-difluoroazetidin-1-yl)methyl)nicotinamide]	5000 to 100000
Cc1nc(-c2cccc(C(=O)Nc3c[nH]c4cc(F)c(F)cc34)c2)no1 [Compound 274, N-(5,6-difluoro-1H-indol-3-yl)-3-(5-methyl-1,2,4-oxadiazol-3-yl)benzamide]	200 to 1000
CC(O)c1cc(C(=O)Nc2c[nH]c3cc(F)c(F)cc23)cc(C(F)(F)F)c1 (stereo not drawn) [Compound 275, N-(5,6-difluoro-1H-indol-3-yl)-3-(1-hydroxyethyl)-5-(trifluoromethyl)benzamide]	1000 to 5000
CC(O)c1cc(C(=O)Nc2c[nH]c3cc(F)c(F)cc23)ccc1C(F)(F)F (stereo not drawn) [Compound 276, N-(5,6-difluoro-1H-indol-3-yl)-3-(1-hydroxyethyl)-4-(trifluoromethyl)benzamide]	200 to 1000
O=C(Nc1c[nH]c2cc(F)c(F)cc12)c1cc(CCO)cc(C(F)(F)F)c1 [Compound 279, N-(5,6-difluoro-1H-indol-3-yl)-3-(2-hydroxyethyl)-5-(trifluoromethyl)benzamide]	1000 to 5000

Second part, the compound after the results:

EC50 [nM]	SMILES
1000 to 5000	O=C(Nc1c[nH]c2cc(F)c(F)cc12)c1cccc(C2(O)CCC(F)(F)CC2)c1 [Compound 251, 3-(4,4-difluoro-1-hydroxycyclohexyl)-N-(5,6-difluoro-1H-indol-3-yl)benzamide]
5000 to 100000	O=C(Nc1c[nH]c2cc(F)c(F)cc12)c1ccnc(CN2CC(F)(F)C2)c1 [Compound 257, N-(5,6-difluoro-1H-indol-3-yl)-2-((3,3-difluoroazetidin-1-yl)methyl)isonicotinamide]
200 to 1000	O=C(Nc1c[nH]c2cc(F)c(F)cc12)c1ccc(C2(O)CCC(F)(F)CC2)c(F)c1 [Compound 258, 4-(4,4-difluoro-1-hydroxycyclohexyl)-N-(5,6-difluoro-1H-indol-3-yl)-3-fluorobenzamide]
200 to 1000	O=C(Nc1c[nH]c2cc(F)c(Cl)cc12)c1ccc(C2(O)CCC(F)(F)CC2)cc1 [Compound 259, N-(5-chloro-6-fluoro-1H-indol-3-yl)-4-(4,4-difluoro-1-hydroxycyclohexyl)benzamide]
200 to 1000	CCC1Cc2ccc(C(=O)Nc3c[nH]c4cc(F)c(F)cc34)cc2C1 (stereo not drawn) [Compound 261, N-(5,6-difluoro-1H-indol-3-yl)-2-ethyl-2,3-dihydro-1H-indene-5-carboxamide]
200 to 1000	O=C(Nc1c[nH]c2cc(F)c(F)cc12)c1ccc(OCCOC(F)(F)F)c(F)c1 [Compound 262, N-(5,6-difluoro-1H-indol-3-yl)-3-fluoro-4-(2-(trifluoromethoxy)ethoxy)benzamide]
200 to 1000	CC(C)Oc1ccc(C(=O)Nc2c[nH]c3cc(F)c(F)cc23)cn1 [Compound 265, N-(5,6-difluoro-1H-indol-3-yl)-6-(propan-2-yloxy)pyridine-3-carboxamide]
5000 to 100000	O=C(Nc1c[nH]c2cc(F)c(F)cc12)c1cccc(NCCCC(F)(F)F)n1 [Compound 277, N-(5,6-difluoro-1H-indol-3-yl)-6-((4,4,4-trifluorobutyl)amino)picolinamide]
1000 to 5000	Cc1cc(C(=O)Nc2c[nH]c3cc(F)c(F)cc23)cc(C)c1C1CCC(F)(F)CC1 [Compound 278, N-(5,6-difluoro-1H-indol-3-yl)-4-(4,4-difluorocyclohexyl)-3,5-dimethylbenzamide]
200 to 1000	O=C(Nc1c[nH]c2cc(F)c(F)cc12)c1ccc(C(F)(F)F)c(CCO)c1 [Compound 280, N-(5,6-difluoro-1H-indol-3-yl)-3-(2-hydroxyethyl)-4-(trifluoromethyl)benzamide]
